# Test results reported in publication PMC12723470, “Heteromultivalent Nanogels as Highly Potent Inhibitors of Pseudomonas Aeruginosa” (Angewandte Chemie (International Ed. in English), 2025).
# Test system: 72 h mature P. aeruginosa biofilm
# Assay: Mature biofilm eradication assay
# Assay type: cell-based, Pseudomonas aeruginosa
# Conditions: 24 h treatment
# Protocol: Inspired by the results of planktonic bactericidal experiments, we further evaluated the anti‐biofilm activity of the nanogels. […] This observation further reinforces our hypothesis that heteromultivalent nanogels with glyco‐residues and the BMAP‐18 peptide contribute to the long‐term eradication of P. aeruginosa. Further, a mature biofilm eradication assay was performed. […] More than 99.9% biofilm‐coated P. aeruginosa were inactivated (Figure 4a and S10). […] Overall, biofilm inhibition experiments with different control NG, NG‐Fuc/Gal and PNG‐Fuc/Gal reveal that PNG‐Fuc/‐Gal decomposes biofilm by a binding and killing mechanism. First, they bind with bacteria surface lectins via their specific sugar ligands and then inactivate using their surface BMAPs leading to a strong reduction in the biofilm matrix.
# Figure 4 a) P. aeruginosa biofilm matrix visualization after 72 h of treatment with samples (red: biofilm matrix, scale bar = 20 µm), b) Biofilm coated‐ P. aeruginosa viability after 12 h treatment of samples. c) Mature P. aeruginosa biofilm visualization after 12 h of treatment with samples, and statistics for thickness and roughness (mean ± SD, n = 7), d) Mature P. aeruginosa biofilm visualization after 24 h of treatment with samples, and statistics for thickness and roughness (mean ± SD, n = 7). 0.01 <*p< […], 0.001 <**p < 0.01, ***p < 0.001, compared with Control group.
compound,measurement,value
NC[C@H]1O[C@H](O[C@H]2[C@H](O)[C@@H](O[C@H]3O[C@H](CO)[C@@H](O)[C@H](N)[C@H]3O)[C@H](N)C[C@@H]2N)[C@H](N)C[C@@H]1O [tobramycin],change of mature biofilm when treatment extended from 12 h to 24 h,did not show significant changes
